Broadly, the LD50 is the dose at which mortality reaches 50%. The low end stands for a more toxic substance, the high end for a less toxic substance. A word on the inhibition: it is the relative decrease from the control value, in per cent.

Each structure is given as a SMILES string. Like-named read-outs stand apart in the source and are kept apart here.

This note sets out measurements from publication PMC5602572, “New carboxamide derivatives bearing benzenesulphonamide as a selective COX-II inhibitor: Design, synthesis and structure-activity relationship” (PLoS ONE, 2017).

The test system of data set [1] is carrageenan induced rat paw edema. The data set is described as follows: carrageenan-induced rat paw edema bioassay. Format: in vivo. Conditions: % inhibition of carrageenan induced rat paw edema, intraperitoneal; for Anti-inflammatory activity, 0.5 h (%): 0.5 h after treatment; for Anti-inflammatory activity, 1 h (%): 1 h after treatment; for Anti-inflammatory activity, 2 h (%): 2 h after treatment; for Anti-inflammatory activity, 3 h (%): 3 h after treatment. The method, then:
Male albino rats weighing 300 g where purchased from the Department of Zoology and Environmental Biology, University of Nigeria, Nsukka and kept at room temperature in a light controlled animal house. They were fasted with free access to water at least 12 h prior to the experiments. […] The positive control received celecoxib while the negative control received only the vehicle. Edema was produced by injecting 0.2 mL of a solution of 1% carrageenan in the hind paw. The rats were injected intraperitoneally with 1 mL suspension in 0.5% methylcellulose of the tested compounds and reference drug. Paw volume was measured by water displacement with a plethysmometer (UGO BASILE) before, 30 min, 1 h, 2 h and 3 h after treatment. The percentage was calculated by the following equation [25].
Anti-inflammatory activity (%) = (1-D/C)[…], where D represents the difference in paw volume before and after drug administration to the rats and C represents the difference of volume in the control groups. The approval for the use of animal was obtained from the University of Nigeria committee on experimental animal use. No sign of death was observed during the experiment.
(Carrageenan injected into the paw causes an acute inflammation.)

The nature of data set [2]: Determination of LD50 in mice. Particulars: mouse, in vivo, ip; male mice, intraperitoneal, observation 72 h. The method, then:
Male mice were divided into various groups and test compounds were administered in various doses intraperitoneally. […] All behavioral changes and deaths during the observation periods were recorded. The percentage of death at each dose level was then calculated, converted to probits and the LD50 (μM/kg) values were calculated. To observe the health status of the mice, they were monitored 4 times a day. […] For the purpose of ameliorating the suffering of the dying mice, CO2 euthanasia was applied. All the dead mice were disposed in bio-safety containers in accordance with local standard protocols. The mortality rate in each group was calculated according to the formula: Mortality rate(%)=(the number of dead mice/the number of mice in the group)×100.

The target of another data set is T1, COX-1 (Ovis aries, UniProt P05979).
T1 construct: purchased Cayman chemicals, USA
T1 sequence (P05979 25-600): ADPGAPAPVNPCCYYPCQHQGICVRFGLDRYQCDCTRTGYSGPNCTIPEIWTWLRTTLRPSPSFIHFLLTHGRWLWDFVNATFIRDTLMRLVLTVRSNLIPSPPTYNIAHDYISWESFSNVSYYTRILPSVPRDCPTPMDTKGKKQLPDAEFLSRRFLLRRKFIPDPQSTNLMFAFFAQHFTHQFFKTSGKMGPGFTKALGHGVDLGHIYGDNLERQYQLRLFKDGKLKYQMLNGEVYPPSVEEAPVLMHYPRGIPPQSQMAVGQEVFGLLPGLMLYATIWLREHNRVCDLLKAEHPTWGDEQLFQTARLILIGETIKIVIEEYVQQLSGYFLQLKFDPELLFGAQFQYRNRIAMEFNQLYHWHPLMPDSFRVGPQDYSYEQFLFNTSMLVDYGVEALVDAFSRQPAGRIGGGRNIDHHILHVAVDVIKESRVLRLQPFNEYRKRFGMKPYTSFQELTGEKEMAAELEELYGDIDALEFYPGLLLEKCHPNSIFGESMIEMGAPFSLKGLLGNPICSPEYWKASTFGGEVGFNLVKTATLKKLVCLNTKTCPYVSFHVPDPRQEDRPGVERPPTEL
In words: In vitro cyclooxygenase inhibitory assay (Cayman colorimetric COX (ovine) inhibitor screening kit), COX-1. Format: biochemical. Conditions: read-out: COX-1 (%) inhibition. The method, then:
(§1) The calculations were performed as per the kit guidelines.

For the next data set, the target named is T2, COX-2 (Ovis aries, UniProt P79208).
T2 construct: purchased Cayman chemicals, USA
T2 sequence (P79208 17-603): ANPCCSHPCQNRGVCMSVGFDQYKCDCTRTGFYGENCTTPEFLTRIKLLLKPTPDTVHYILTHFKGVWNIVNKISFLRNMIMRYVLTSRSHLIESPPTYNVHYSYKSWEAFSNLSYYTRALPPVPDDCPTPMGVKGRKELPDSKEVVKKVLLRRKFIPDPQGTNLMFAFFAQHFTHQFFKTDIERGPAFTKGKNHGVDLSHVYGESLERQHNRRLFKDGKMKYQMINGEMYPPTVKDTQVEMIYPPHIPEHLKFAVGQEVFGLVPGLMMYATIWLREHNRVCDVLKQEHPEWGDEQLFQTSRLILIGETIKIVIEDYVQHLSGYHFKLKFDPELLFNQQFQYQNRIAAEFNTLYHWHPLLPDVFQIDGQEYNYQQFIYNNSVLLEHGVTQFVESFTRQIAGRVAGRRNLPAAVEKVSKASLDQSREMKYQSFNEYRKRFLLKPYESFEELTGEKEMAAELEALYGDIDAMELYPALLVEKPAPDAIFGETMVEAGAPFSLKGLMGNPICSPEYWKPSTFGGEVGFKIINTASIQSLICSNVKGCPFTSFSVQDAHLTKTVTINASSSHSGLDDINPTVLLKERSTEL
In words: In vitro cyclooxygenase inhibitory assay (Cayman colorimetric COX (ovine) inhibitor screening kit), COX-2. The format is biochemical. Conditions: for inhibition at 2 µM: read-out: COX-2 (%) inhibition; for S I (selectivity COX-2/COX-1): ratio of % inhibition COX-2/COX-1 at 2.0 μM. The method, then:
as §1

On to `Cc1ccc(-c2cc(C(F)(F)F)nn2-c2ccc(S(N)(=O)=O)cc2)cc1` [Celecoxib, celecoxib, reference compound], for which, in data set [1], the “Anti-inflammatory activity, 0.5 h (%)” value is listed as 56.92%; the “Anti-inflammatory activity, 1 h (%)” value is 63.53%; the “Anti-inflammatory activity, 2 h (%)” value was determined as 64.84%; the “Anti-inflammatory activity, 3 h (%)” value was 82.60%. Also, the LD50 at 72 h in data set [2] was 9.8 µmol/kg.
For `Cc1ccnc(NC(=O)CN(C(=O)c2ccccc2)S(=O)(=O)c2ccc([N+](=O)[O-])cc2)c1` [Compound 7a, N-(4-methylpyridin-2-yl)-2-[N-(4-nitrobenzenesulfonyl)-1-phenylformamido]acetamide], in data set [1], the “Anti-inflammatory activity, 0.5 h (%)” value amounted to 24.62%; the “Anti-inflammatory activity, 1 h (%)” value is listed as 18.82%; the “Anti-inflammatory activity, 2 h (%)” value was 14.24%; the “Anti-inflammatory activity, 3 h (%)” value amounted to 11.85%. The LD50 at 72 h in data set [2] turned out to be 12.9 µmol/kg. Further, on COX-1 (concentration of 2.0 μM), the inhibition at 2 µM came to 14%. The inhibition at 2 µM at COX-2 (concentration of 2.0 μM) is 49%. For the same compound, the “S I (selectivity COX-2/COX-1)” value on COX-2 is 3.5.
As for `Cc1ccnc(NC(=O)[C@H](Cc2ccccc2)N(C(=O)c2ccccc2)S(=O)(=O)c2ccc([N+](=O)[O-])cc2)c1` [Compound 7b, (2S)-N-(4-methylpyridin-2-yl)-2-[N-(4-nitrobenzenesulfonyl)-1-phenylformamido]-3-phenyl propanamide], in data set [1], the “Anti-inflammatory activity, 0.5 h (%)” value is 32.31%; the “Anti-inflammatory activity, 1 h (%)” value came to 17.06%; the “Anti-inflammatory activity, 2 h (%)” value stood at 17.03%; the “Anti-inflammatory activity, 3 h (%)” value was 12.96%. The compound also came in with an LD50 at 72 h in data set [2] of 14.2 µmol/kg. Moreover, the inhibition at 2 µM on COX-1 (concentration of 2.0 μM) came to 8%. The inhibition at 2 µM at COX-2 (concentration of 2.0 μM) came to 52%. At COX-2, the “S I (selectivity COX-2/COX-1)” value is listed as 6.5.
As for `Cc1ccnc(NC(=O)[C@H](Cc2cc3ccccc3[nH]2)N(C(=O)c2ccccc2)S(=O)(=O)c2ccc([N+](=O)[O-])cc2)c1` [Compound 7c, (2S)-3-(1H-indol-2-yl)-N-(4-methylpyridin-2-yl)-2-[N-(4-nitrobenzenesulfonyl)-1-phenylformamido]propanamide], in data set [1], the “Anti-inflammatory activity, 0.5 h (%)” value is 49.23%; the “Anti-inflammatory activity, 1 h (%)” value came to 62.35%; the “Anti-inflammatory activity, 2 h (%)” value worked out at 75.75%; the “Anti-inflammatory activity, 3 h (%)” value was 88.89%. In data set [2], the 50% lethal dose (LD50) at 72 h was found to be 8.3 µmol/kg. Besides, the inhibition at 2 µM on COX-1 amounted to 2%. In addition, at COX-2, the inhibition at 2 µM was determined as 70%.
On to `Cc1ccnc(NC(=O)[C@H](CC(C)C)N(C(=O)c2ccccc2)S(=O)(=O)c2ccc([N+](=O)[O-])cc2)c1` [Compound 7d, (2S)-4-Methyl-N-(4-methylpyridin-2-yl)-2-[N-(4-nitrobenzenesulfonyl)-1-phenylformamido]pentanamide], for which, in data set [1], the “Anti-inflammatory activity, 0.5 h (%)” value amounted to 52.31%; the “Anti-inflammatory activity, 1 h (%)” value stood at 17.65%; the “Anti-inflammatory activity, 2 h (%)” value turned out to be 10.54%; the “Anti-inflammatory activity, 3 h (%)” value is 10.15%. Further, the 50% lethal dose (LD50) at 72 h in data set [2] was found to be 12.6 µmol/kg. In addition, the inhibition at 2 µM at COX-1 (concentration of 2.0 μM) turned out to be 10%. For the same compound, the inhibition at 2 µM on COX-2 (concentration of 2.0 μM) was found to be 20%. In addition, the “S I (selectivity COX-2/COX-1)” value at COX-2 worked out at 2.00.
Take `CCC(C)[C@@H](C(=O)Nc1cc(C)ccn1)N(C(=O)c1ccccc1)S(=O)(=O)c1ccc([N+](=O)[O-])cc1` (stereo partly drawn) [Compound 7e, (2S)-3-Methyl-N-(4-methylpyridin-2-yl)-2-[N-(4-nitrobenzenesulfonyl)-1-phenylformamido]pentanamide]: in data set [1], the “Anti-inflammatory activity, 0.5 h (%)” value was found to be 26.15%; the “Anti-inflammatory activity, 1 h (%)” value amounted to 25.88%; the “Anti-inflammatory activity, 2 h (%)” value is given as 19.38%; the “Anti-inflammatory activity, 3 h (%)” value is given as 16.05%. In data set [2], this compound had a 50% lethal dose (LD50) at 72 h of 13.1 µmol/kg. The inhibition at 2 µM at COX-1 (concentration of 2.0 μM) was 4%. Besides, at COX-2 (concentration of 2.0 μM), the inhibition at 2 µM came to 17%. Besides, the “S I (selectivity COX-2/COX-1)” value on COX-2 was determined as 4.25.
Consider `Cc1ccnc(NC(=O)[C@H](C(C)C)N(C(=O)c2ccccc2)S(=O)(=O)c2ccc([N+](=O)[O-])cc2)c1` [Compound 7f, (2S)-3-Methyl-N-(4-methylpyridin-2-yl)-2-[N-(4-nitrobenzenesulfonyl)-1-phenylformamido]butanamide], for which, in data set [1], the “Anti-inflammatory activity, 0.5 h (%)” value is 24.62%; the “Anti-inflammatory activity, 1 h (%)” value was 17.65%; the “Anti-inflammatory activity, 2 h (%)” value was 14.84%; the “Anti-inflammatory activity, 3 h (%)” value is on record as 1.85%. In data set [2], this compound had an LD50 at 72 h of 15.8 µmol/kg. For the same compound, at COX-1 (concentration of 2.0 μM), the inhibition at 2 µM worked out at 15%. In addition, at COX-2 (concentration of 2.0 μM), the inhibition at 2 µM amounted to 54%. Further, on COX-2, the “S I (selectivity COX-2/COX-1)” value was 3.6.
Regarding `Cc1ccnc(NC(=O)[C@@H]2CC(O)CN2S(=O)(=O)c2ccc([N+](=O)[O-])cc2)c1` (stereo partly drawn) [Compound 7g, (2S)-4-Hydroxy-N-(4-methylpyridin-2-yl)-1-(4-nitrobenzenesulfonyl)pyrrolidine-2-carboxamide], in data set [1], the “Anti-inflammatory activity, 0.5 h (%)” value is on record as 46.92%; the “Anti-inflammatory activity, 1 h (%)” value is listed as 53.53%; the “Anti-inflammatory activity, 2 h (%)” value is recorded as 58.84%. In data set [2], this compound came in with a 50% lethal dose (LD50) at 72 h of 9.9 µmol/kg. Further, at COX-1, the inhibition at 2 µM worked out at 18%. Moreover, the inhibition at 2 µM at COX-2 was 20%.
As to `Cc1ccnc(NC(=O)[C@@H]2CCCN2S(=O)(=O)c2ccc([N+](=O)[O-])cc2)c1` [Compound 7h, (2S)-N-(4-methylpyridin-2-yl)-1-(4-nitrobenzenesulfonyl)pyrrolidine-2-carboxamide], in data set [1], the “Anti-inflammatory activity, 0.5 h (%)” value amounted to 27.69%; the “Anti-inflammatory activity, 1 h (%)” value was found to be 17.06%; the “Anti-inflammatory activity, 2 h (%)” value stood at 16.59%; the “Anti-inflammatory activity, 3 h (%)” value is reported as 16.05%. In data set [2], this compound had an LD50 at 72 h of 10.7 µmol/kg. On COX-1, the inhibition at 2 µM was found to be 30%. For the same compound, at COX-2, the inhibition at 2 µM was determined as 13%.
As for `Cc1ccc(S(=O)(=O)N(CC(=O)Nc2cc(C)ccn2)C(=O)c2ccccc2)cc1` [Compound 7i, 2-[N-(4-methylbenzenesulfonyl)-1-phenylformamido]-N-(4-methylpyridin-2-yl)acetamide], in data set [1], the “Anti-inflammatory activity, 0.5 h (%)” value is on record as 24.62%; the “Anti-inflammatory activity, 1 h (%)” value worked out at 23.53%; the “Anti-inflammatory activity, 2 h (%)” value came to 16.78%; the “Anti-inflammatory activity, 3 h (%)” value came out at 12.47%. This compound gave an LD50 at 72 h in data set [2] of 18.2 µmol/kg. Also, the inhibition at 2 µM at COX-1 (concentration of 2.0 μM) came out at 3%. Moreover, the inhibition at 2 µM at COX-2 (concentration of 2.0 μM) was 18%. On COX-2, the “S I (selectivity COX-2/COX-1)” value was 6.00.
